Earlier results on 1 molecule are cited in patent US9012511B2, “Nanoparticulate cinacalcet compositions” (Alkermes Pharma Ireland Limited, priority 2010, dated 2015).

The conditions of series [1]: fasted subjects; estimated.

Like-named read-outs stand apart in the source and are kept apart here.

With `C[C@@H](NCCCc1cccc(C(F)(F)F)c1)c1cccc2ccccc12.Cl` [Cinacalcet HCl, Cinacalcet hydrochloride], the mean tmax (fasting subjects) is on record as 6 h, the mean tmax (high-fat fed subjects) is recorded as 4 h and the mean tmax (low-fat fed subjects) is reported as 3.5 h. Also, the “difference in mean AUC∞ between high- and low-fat meals” value (single oral dose 90 mg) is recorded as 12 (9.9-26) %. Further, the “mean (90% confidence intervals) AUC[infinity] increase relative to fasting” value is, setting by setting: (single oral dose 90 mg, high-fat, high-caloric meal) 68 (48 to 89) %; (single oral dose 90 mg, low-fat, low-caloric meal) 50 (33 to 70) %. In addition, the absolute bioavailability in series [1] is reported as 20-25%.
